Test results: paper PMC7171691 (Journal of Tropical Medicine, 2020)
≈ marks a conversion by molar mass, not a printed value.

Key:
[1] = system: P. falciparum 3D7 strains (CQ sensitive); assay: In vitro drug sensitivity, tritiated hypoxanthine incorporation assay; assay type: cell-based, Plasmodium falciparum; details: Plasmodium falciparum; P. falciparum 3D7, CQ sensitive; [3H]hypoxanthine uptake, 48 hours; read-out: IC50
Procedure: Further dilutions were prepared on the day of biological assays. All the drug solutions were stored at 4°C for later use.

P. berghei ANKA = assay: In vivo efficacy, 4-day oral treatment of infected mice; parameters: species or system Plasmodium berghei in female Swiss albino mice; details: for Number of mice which survived up to 11 days: 5 mice per group
Procedure: Female Swiss albino mice were collected and kept in the animal house of the Center for Biotechnology and Research Development at the Kenya Medical Research Institute (KEMRI), where the animal experiments were carried out. The animals were six weeks old, weighing 20 to 22 g, and they were kept in mice cages and were allowed to access mice pencils (Ungafeed Company Ltd) and water before experimental testing. Plasmodium berghei ANKA strains, sensitive to quinolone and artemisinin-based drugs, were obtained from the Unit of Malaria, Center for Biotechnology and Research and Development, Kenya Medical Research Institute. Parasites were maintained and cryopreserved in a freezer (−80°C). The parasite was subsequently maintained in the laboratory by serial blood passage from mouse to mouse on a weekly basis.
This consisted of in vivo evaluation of hybrid drug against P. berghei ANKA, a rodent parasite which is commonly used in antimalarial studies. Female Swiss albino donor mouse was injected intraperitoneally with 0.2 ml of inoculums of 1 × 10^7 parasitized erythrocytes, and P. berghei ANKA strain was obtained from the donor mouse. Parasitaemia was assessed after 5 days under microscope using the Giemsa staining technique. The donor mouse was sedated using carbon dioxide to collect blood via cardiac puncture in a heparinized tube using a syringe and a needle. Carcasses were pooled in a biohazard container and stored at room temperature while waiting to be incinerated. Afterward, the experimental mice were infected with inoculums of 1 × 10^7 parasitized erythrocytes using an intraperitoneal method. The mice were grouped into five groups consisting of 5 mice per group. […] Blood for making thin blood smear was collected from the tip of the mouse tail. The efficacy of the drug was measured by comparison of blood parasitaemia after the four days of therapy (i.e., on day 5 postinfection). The ones still alive at the end of the experiments were killed by using carbon dioxide gas followed by incineration.
The determination of the dose to be administered was calculated individually according to each mouse weight. In this regard, these formulas were applied: HED (mg/kg) = Animal Dose (mg/kg) ∗ [Animal km/Human km], where HED stands for human equivalent dose and km which is a conversion factor. With km (a constant) = Weight/Body surface area. For mice of 0.02 kg, with a body surface area of 0.007, km = 0.02/0.007 = 3 [15].(3) Dosage mg/kg =Drug concentration mg/ml∗Volume ml/Body weightkg.
From formula (2),(4) Volume ml of drug to be given to each mouse=Body weight kg∗Dosage mg/kg/Drug concentration mg/ml .
The parasitaemia was checked for every 24 hours from the time of infection for 4 days. Thin blood smears were prepared from each mouse tail venous blood. The smears were prepared by the Giemsa staining technique, and the parasitaemia of individual mouse had been checked using a light microscope. The following formula was used to calculate the percentage parasitaemia:(5) The Percentage of parasitaemia=Number of parasitized RBCs/field/Total number of RBCs/field ∗100.
After 4 days, the percentage (%) chemosuppression of each drug was determined using the following formula [17]:(6) Percentage chemosuppression= 100−A−B/A×100, where A is the mean parasitaemia in the negative control group and B is the parasitaemia in the test group. The dose that cured 50% of infected animals had been determined as effective dose (ED50) using a nonlinear regression logistic dose-response model.

MTT cytotoxicity assay = assay type: cell-based, African green monkey (Cercopithecus aethiops); details: African green monkey (Cercopithecus aethiops), Vero E-6 cells; vero cells, MTT, 48 hours, triplicate; read-out: Mean CC50
Procedure: (§1) To conduct in vitro toxicity, stock solutions of the test compound and reference drugs were prepared with sterile water. […] The test samples were prepared as a 1 mg·ml^−1 stock solution. Further dilutions were prepared on the day of biological assays. All the drug solutions were stored at 4°C for later use. Vero cells (Vero E-6) were obtained from the Center for Traditional Medicine Drugs and Research (CTMDR), KEMRI. Vero cells are kidney cells extracted from an African green monkey (Cercopithecus aethiops). […] Cells were maintained in Minimum Essential Eagle's Medium (MEM) containing 10% fetal bovine serum (FBS), PenStrep, and glutamine. Vero cells were cultured using T-75 culture flasks. The flasks were kept at 37°C in 5% CO2, and the cells were passaged every 2 to 3 days to keep the cells alive. Trypsinization was carried out to detached cells which overlap each other and counted using a hemocytometer (Neubauer).
(§2) Using a 96-microwell plate, a cell density of 20,000 vero cells were seeded and incubated for 24 hours at 37°C under 5% CO2 to allow cells to attach to the surface/base of the plate. […] The plates were incubated for 48 hours at 37°C under 5% CO2 to allow the reaction to occur. After 48 hours, 0.5 mg/ml of 3-(4, 5-dimethylthiazol-2-yl)-2,5-diphenyltetra-zolium bromide (MTT) was added for calorimetric measurement of the ability of a drug to kill the vero cell lines. The plates were incubated at 37°C for 3 hours. 100 μL of 100% DMSO was added to each well and mixed to ensure cell lysis and dissolving of the formazan crystals. Doxorubicin was used as a control drug.
(§3) The amount of formazan measured was directly proportional to the number of viable cells.

vero cells (Vero E-6) = assay: MTT cytotoxicity assay; assay type: cell-based, African green monkey (Cercopithecus aethiops); details: vero cells
Procedure: as §1, §2, §3

[2] = Acute oral toxicity in mice; assay type: in vivo; details: for Number of dead mice: 3 mice per group, head says after 28 days, text 14 days, listed as sarcosine-aniline hybrid drug; for Mean average of weight after 14 days: initial weights 20 to 22 g
Procedure: In this step, acute toxicity was performed. Three dosages, such as 2000 mg·kg^−1, and 300 mg·kg^−1, and 50 mg/kg were administered orally to mice in three groups, and the fourth group which served as a control received water as a placebo. Each group consisted of 3 mice, and the weight and number of dead mice were monitored and recorded after each 4 days over an interval of 14 days. Clinical or physical signs were also subjected to be recorded during the study period. At the end of the experiment, the mice were killed by using concentrated carbon dioxide gas followed by incineration. The number of dead mice was to be recorded, and a semilog plot of log concentration against percentage (%) response was made.

Solubility observations = assay type: physicochemical
[3] = Acute oral toxicity in mice; details: mouse, in vivo, 28 days

With `CNCC(=O)Nc1ccc(Oc2ccc(Cl)cc2)c(Cl)c1` [Sarcosine-aniline hybrid, 3-Chloro-4(4-chlorophenoxy) Methyglycylanilde] as the compound, how does the IC50 [1] read?
The IC50 was 0.0448 ± 0.0047 µg/mL (≈ 0.138 µM).

What about the ED50 (P. berghei ANKA; Plasmodium berghei, 96 h, P. berghei ANKA sensitive strain in mice, four days of oral treatment, read-out: ED50) of the same compound?
The ED50 was 6.49 mg/kg.

And the “Average parasitaemia, Day 7” value (P. berghei ANKA; after stopping the treatment with 10 mg/kg, day 7)?
Its value is 9.74%.

And the “Average parasitaemia, Day 9” value (P. berghei ANKA; after stopping the treatment with 10 mg/kg, day 9)?
The value was 12.98%.

And the “Average parasitaemia, Day 11” value (P. berghei ANKA; after stopping the treatment with 10 mg/kg, day 11)?
Its value is 15.61%.

What about the “Number of mice which survived up to 11 days” value (from here on “Number … to 11 days”) (P. berghei ANKA; dosage 0.625 mg/kg oral) of the same compound?
Its value is 1.

What about the “Number … to 11 days” value (P. berghei ANKA; dosage 1.25 mg/kg oral) of the same compound?
Its value is 1.

What about the “Number … to 11 days” value (P. berghei ANKA; dosage 2.5 mg/kg oral) of the same compound?
The value was 1.

What about the “Number … to 11 days” value (P. berghei ANKA; dosage 5 mg/kg oral) of the same compound?
Its value is 2.

What about the “Number … to 11 days” value (P. berghei ANKA; dosage 10 mg/kg oral) of the same compound?
Its value is 3.

And the CC50 at 48 h (MTT cytotoxicity assay)?
The CC50 at 48 h was 50.2 µg/mL (≈ 154 µM).

What about the “Mean difference of CC50 versus artesunate” value (vero cells (Vero E-6); sarcosine-aniline hybrid VS artesunate, in µg/mL) of the same compound?
The value was 30.48.

What about the “Mean difference of CC50 versus chloroquine” value (vero cells (Vero E-6); sarcosine-aniline hybrid VS chloroquine) of the same compound?
Its value is -7.78.

And the “Mean difference of CC50 versus doxorubicin” value (vero cells (Vero E-6); sarcosine-aniline hybrid VS doxorubicin, in µg/mL)?
Its value is 48.21.

And the “Number of dead mice” value ([2]; 50 mg/kg oral)?
Its value is “No mouse died”.

What about the “Mean average of weight after 14 days” value ([2]; 50 mg/kg oral) of the same compound?
Its value is 22.24 g.

And the “Number of dead mice” value ([2]; 300 mg/kg oral)?
Its value is “No mouse died”.

What about the “Mean average of weight after 14 days” value ([2]; 300 mg/kg oral) of the same compound?
The value was 21.58 g.

And the “Number of dead mice” value ([2]; 2000 mg/kg oral)?
Its value is “No mouse died”.

What about the “Mean average of weight after 14 days” value ([2]; 2000 mg/kg oral) of the same compound?
Its value is 21.34 g.

What about the “Therapeutic index (LD50/ED50)” value ([2]; LD50 >5000 mg/kg, ED50 6.49 mg/kg) of the same compound?
Its value is “greater than 770.41”.

What about the LD50 at 14 days ([2]; mouse, in vivo, oral, mice, estimated from no deaths at 2000 mg/kg) of the same compound?
Its LD50 at 14 days is over 5000 mg/kg.

And the “OECD/OCDE guideline toxicity category” value ([2]; oral acute toxicity, mice)?
Its value is “category 5”.

And the “Therapeutic index relative to that of artesunate” value ([2]; versus artesunate therapeutic index of 4 from Xie et al. [31])?
The value was 192.6 fold.

What about the “Solubility in dimethyl sulfoxide (DMSO)” value (Solubility observations; DMSO) of the same compound?
The value was “soluble”.

What about the “Solubility in Tween 80” value (Solubility observations; Tween 80) of the same compound?
The value was “slightly soluble”.

And the Solubility in water (Solubility observations; water)?
Its Solubility in water is “very low”.

And the “Number of dead mice” value [3]?
The value was 0.
